Assays:
[1] = target: T1, HPV16 E6-p300 association in UMSCC47 cells (Homo sapiens, UniProt Q09472); test: Immunoprecipitation, HPV16 E6-p300 association; format: cell-based; conditions: UMSCC47, 10 μM, 24 hours
T1 construct: endogenous in cells; host or cells: UMSCC47 (HPV16-positive HNSCC cells)
Experimental: Cells were lysed with NP buffer [50 mM Tris (pH 8.0), 150 mM NaCl, 0.5% deoxycholate, 0.1% SDS, and 1.0% NP-40] containing 1× Protease Inhibitor Cocktail (Roche, Switzerland) at 4° C. with gentle rocking for 15 min. The supernatant was pre-cleared to block nonspecific binding with 50 μL protein A/G Agarose beads (Pierce Biotechnology) that had been pre-washed with NP buffer before use. Equal amounts of anti-E6 antibody (Abcam), anti-p300 antibody (Millipore), or IgG antibody (Cell Signaling) were added to the respective samples. After 4 hours incubation at 4° C., 50 μL pre-washed protein A/G-agarose beads were added to each tube and immunoprecipitation was performed by rocking overnight at 4° C. The immunoprecipitated complexes were washed with NP buffer and then eluted using 2×SDS sample buffer. Eluted sample and 10% of input were resolved by SDS-PAGE for Western blot analysis with anti-E6, anti-p300, or anti-V5 antibodies.

UMSCC74A cells = test: Cell proliferation (MTT); format: cell-based, human; conditions: for cell proliferation, single-agent: HPV-negative UMSCC74A, 10 μM; for efficacy of cis-platinum on proliferation, combination: UMSCC74A, 10 μM with cis-platinum 10 μM
Experimental: (§1) Cell proliferation was assessed using the MTT reagent (Roche Molecular Biochemicals, Nutley, N.J.) to detect metabolic active cells. Absorbance was measured at 570 nm in the Spectra Max 190 ELISA reader (Molecular Devices, Sunnyvale, Calif.) after overnight incubation. For clonogenic survival, 200 cells per well were plated in complete growth media and allowed to grow until visible colonies were formed (14 days). Cell colonies were fixed with cold methanol, stained with 0.25% crystal violet in 25% methanol, washed, and air dried. For apoptosis, cells were harvested, washed with cold PBS, and co-stained with Annexin V and propidium iodide according to the manufacturer's protocol (ApoAlert Annexin V-FITC Apoptosis Kit; Clontech). Apoptotic cells were analyzed using BD FACS Calibur (BD Biosciences Corporation, Franklin Lakes, N.J.) at The Ohio State University Comprehensive Cancer Center Analytical Cytometry Core.

UMSCC47 cells [2] = test: Cell proliferation (MTT); format: cell-based, human; conditions: for cell proliferation, single-agent: UMSCC47, 10 μM; for cell proliferation, in combination with cis-platinum: UMSCC47, 10 μM with cis-platinum 10 μM
Experimental: as §1

[3] = system: total and acetylated p53 in UMSCC47 cells; test: Western blot of total and acetylated[K382] p53; format: cell-based, human; conditions: 24 hours; for p53 accumulation and acetylated p53 levels: UMSCC47, 10 μM
Experimental: (§2) Whole cell lysates were mixed with Laemmli loading buffer, boiled, separated by SDS-PAGE, and transferred to a nitrocellulose membrane. Subsequently, immunoblot analyses were performed using antibodies specific to V5 (Invitrogen), p53 (sc-126, Santa Cruz Biotechnology, Santa Cruz, Calif.), or acetylated[[…]]-p53 (2525, Cell Signaling Technology). The signal was developed using the SuperSignal Western Blotting Kit (Pierce, Rockford, Ill.).

[4] = system: total and acetylated p53 in UMSCC74A cells; test: Western blot of total and acetylated[K382] p53; format: cell-based, human; conditions: 10 μM, 24 hours
Experimental: as §2

[5] = system: p53 transcriptional activity in UMSCC74A cells; test: p53 transcriptional activity, Cignal p53 luciferase reporter; format: cell-based, human; conditions: HPV-negative UMSCC74A, 10 μM, 24 hours
[6] = system: p300, p53, p21, miR-34a, miR-200c expression in UMSCC74A cells; test: Quantitative real-time PCR (TaqMan); format: cell-based, human; conditions: 10 μM, 24 hours
Experimental: (§3) Cells were extracted for total RNA using the TRIzol® reagent (Invitrogen) or TaqMan PreAmp Cells-to-CT kit (Applied Biosystems). Expression of p300, p53, p21, miR-34a and miR-200c were determined using the Applied Biosystems 7900HT Fast Real-Time PCR System with validated TaqMan gene expression assays (Applied Biosystems). p53, p300, and p21 expression were normalized to GADPH and miR-34a and miR-200c expression were normalized to RNU44 using the ΔΔCt method.

[7] = system: IMR90 (human normal fibroblasts); test: Cell proliferation (MTT); format: cell-based; conditions: for efficacy of cis-platinum on proliferation, combination: IMR90 fibroblasts, 10 μM with cis-platinum 10 μM; for cell proliferation, single-agent: human normal IMR90 fibroblasts, 10 μM
Experimental: as §1

[8] = system: p53 transcriptional activity in UMSCC47 cells; test: p53 transcriptional activity, Cignal p53 luciferase reporter; format: cell-based, human; conditions: 24 hours; for p53 activity, increase: vs vehicle
Experimental: Cells were transfected with 100 ng of Cignal p53 reporter (SABiosciences, Valencia, Calif.) using Lipofectamine 2000. Cignal p53 reporter contains tandem repeats of the p53 consensus transcriptional response element. After 48 hours, cells were washed with cold PBS, lysed in passive lysis buffer (Promega), and measured for Firefly/Renilla dual luciferase activities in a luminometer using the Dual-Light System (Applied Biosystems, Foster City, Calif.). […] to control for transfection efficiency. A modification to the protocol was used for compound treatment. UMSCC47 cells were transfected with 100 ng of Cignal p53 reporter. After 24 hours, cells were treated with vehicle, CH1iB (10 μM), cis-platinum (10 μM), or combination of CH1iB (10 μM) and cis-platinum (10 μM) and measured for Firefly/Renilla dual luciferase activities 24 hours post-treatment.

UMSCC47 cells [9] = test: Apoptosis, Annexin V FACS; format: cell-based, human; conditions: UMSCC47, 10 μM, 24 hours, vs vehicle
Experimental: as §1

[10] = system: p300, p53, p21, miR-34a, miR-200c expression in UMSCC47 cells; test: Quantitative real-time PCR (TaqMan); format: cell-based, human; conditions: UMSCC47, 10 μM, 24 hours
Experimental: as §3

UMSCC47 cells [11] = test: Clonogenic survival; format: cell-based, human; conditions: UMSCC47, 10 μM, 14 days, vs vehicle
Experimental: as §1

UMSCC47 cells [12] = test: Tumorsphere formation; format: cell-based, human; conditions: UMSCC47, 10 μM, 7 days, vs vehicle
Experimental: Cells were harvested and seeded in a serum-free defined medium consisting of KSF medium supplemented with epidermal growth factor, basic fibroblast growth factor, insulin, and hydrocortisone in low-attachment plates (Corning Incorporated, Corning, N.Y.) for tumorspheres. Tumorsphere formation efficiency was calculated as the number of tumorspheres (≧50 μm in diameter) formed in 7 days divided by the original number of cells seeded. Tumorsphere diameter was measured using NIS-Elements software.

[13] = HPV-positive UMSCC47 cells, 10 μM
[14] = UMSCC47, CH1iB 10 μM and cis-platinum 10 μM

T1 sequence (Q09472 whole entry): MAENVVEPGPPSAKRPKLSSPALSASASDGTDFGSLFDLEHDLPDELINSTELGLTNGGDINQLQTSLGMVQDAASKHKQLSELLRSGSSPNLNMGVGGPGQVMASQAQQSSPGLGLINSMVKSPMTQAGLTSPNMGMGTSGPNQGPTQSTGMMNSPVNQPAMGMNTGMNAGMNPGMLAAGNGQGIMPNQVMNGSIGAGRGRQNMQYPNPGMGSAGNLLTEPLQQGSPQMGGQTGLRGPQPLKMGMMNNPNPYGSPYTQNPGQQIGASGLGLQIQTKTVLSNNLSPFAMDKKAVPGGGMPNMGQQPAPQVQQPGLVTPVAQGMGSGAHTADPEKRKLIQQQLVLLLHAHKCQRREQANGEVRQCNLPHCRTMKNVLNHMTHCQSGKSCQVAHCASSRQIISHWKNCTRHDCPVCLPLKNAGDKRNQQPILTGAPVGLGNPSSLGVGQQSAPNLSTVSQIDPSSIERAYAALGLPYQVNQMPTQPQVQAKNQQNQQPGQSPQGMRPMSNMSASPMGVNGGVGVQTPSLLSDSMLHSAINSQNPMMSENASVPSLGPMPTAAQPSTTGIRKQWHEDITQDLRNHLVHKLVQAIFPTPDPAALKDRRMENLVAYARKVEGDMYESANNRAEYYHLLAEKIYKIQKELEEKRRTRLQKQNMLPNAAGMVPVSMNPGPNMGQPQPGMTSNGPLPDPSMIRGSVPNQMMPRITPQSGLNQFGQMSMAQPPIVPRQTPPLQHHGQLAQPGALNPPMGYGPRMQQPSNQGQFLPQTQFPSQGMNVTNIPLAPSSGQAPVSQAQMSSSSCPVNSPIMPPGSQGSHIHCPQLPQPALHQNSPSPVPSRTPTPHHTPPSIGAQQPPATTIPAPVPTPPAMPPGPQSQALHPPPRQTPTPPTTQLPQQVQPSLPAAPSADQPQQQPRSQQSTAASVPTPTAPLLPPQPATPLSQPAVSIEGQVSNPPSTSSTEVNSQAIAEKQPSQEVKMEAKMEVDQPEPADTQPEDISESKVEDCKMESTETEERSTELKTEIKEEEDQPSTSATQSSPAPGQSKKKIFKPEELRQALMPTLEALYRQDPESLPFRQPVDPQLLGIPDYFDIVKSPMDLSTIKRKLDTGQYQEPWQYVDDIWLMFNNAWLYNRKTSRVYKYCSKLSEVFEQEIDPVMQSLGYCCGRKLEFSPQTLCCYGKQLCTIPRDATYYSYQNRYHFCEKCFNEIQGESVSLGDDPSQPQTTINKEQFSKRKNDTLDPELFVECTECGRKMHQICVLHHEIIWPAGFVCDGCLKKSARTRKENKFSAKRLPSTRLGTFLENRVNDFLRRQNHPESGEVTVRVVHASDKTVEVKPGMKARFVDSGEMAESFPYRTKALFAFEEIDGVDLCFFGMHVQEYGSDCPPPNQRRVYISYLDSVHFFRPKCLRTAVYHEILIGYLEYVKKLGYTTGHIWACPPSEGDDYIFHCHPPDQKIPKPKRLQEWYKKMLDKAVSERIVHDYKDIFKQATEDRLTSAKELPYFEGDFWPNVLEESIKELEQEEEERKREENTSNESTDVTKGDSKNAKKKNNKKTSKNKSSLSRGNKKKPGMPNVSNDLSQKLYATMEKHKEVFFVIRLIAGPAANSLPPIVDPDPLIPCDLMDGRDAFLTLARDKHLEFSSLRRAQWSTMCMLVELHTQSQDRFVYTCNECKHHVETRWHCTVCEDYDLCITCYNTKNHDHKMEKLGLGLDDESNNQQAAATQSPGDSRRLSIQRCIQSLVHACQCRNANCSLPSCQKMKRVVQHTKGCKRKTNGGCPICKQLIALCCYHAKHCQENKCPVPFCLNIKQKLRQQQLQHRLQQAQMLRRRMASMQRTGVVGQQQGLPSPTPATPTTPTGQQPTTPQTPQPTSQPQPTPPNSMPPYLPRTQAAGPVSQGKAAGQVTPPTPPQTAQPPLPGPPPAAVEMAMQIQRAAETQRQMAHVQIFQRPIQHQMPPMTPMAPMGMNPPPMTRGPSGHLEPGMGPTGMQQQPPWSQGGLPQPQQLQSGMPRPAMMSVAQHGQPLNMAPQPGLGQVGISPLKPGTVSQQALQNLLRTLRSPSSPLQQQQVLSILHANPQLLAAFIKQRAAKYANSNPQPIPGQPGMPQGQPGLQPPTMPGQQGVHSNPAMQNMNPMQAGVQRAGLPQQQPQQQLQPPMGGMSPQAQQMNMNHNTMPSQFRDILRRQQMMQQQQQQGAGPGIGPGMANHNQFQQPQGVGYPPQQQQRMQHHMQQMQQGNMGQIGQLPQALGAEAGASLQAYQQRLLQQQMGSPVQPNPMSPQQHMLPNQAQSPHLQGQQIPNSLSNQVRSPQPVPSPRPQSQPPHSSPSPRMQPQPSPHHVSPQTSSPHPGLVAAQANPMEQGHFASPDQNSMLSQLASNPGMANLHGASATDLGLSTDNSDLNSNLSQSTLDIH

XTAA*DCEYNAR (TAXDCEYNAR; not fully specified; hydrogen bond surrogate crosslink; CH1iA) [hydrogen bond surrogate stabilized α-helical mimic of HIF-1α targeting site A of p300 CH1, reference compound]
association between E6 and p300 [1]: not
cell proliferation, single-agent (UMSCC74A cells): had no effect
efficacy of cis-platinum on proliferation, combination (UMSCC74A cells): did not augment
cell proliferation, single-agent (UMSCC47 cells [2]): inactive
p53 accumulation and acetylated p53 levels [3]: had no effect
p53 levels [4]: did not modulate
p53 activity [5]: did not modulate
expression of p300, p53, and p53-regulated genes [6]: unchanged
efficacy of cis-platinum on proliferation, combination [7]: did not augment
cell proliferation, single-agent [7]: had no effect
p53 activity [8, 13]: had no effect

XELA*RALDQ-NH2 (ELXRALDQ; not fully specified; hydrogen bond surrogate crosslink; C-terminal amide; CH1iB) [hydrogen bond surrogate helix mimic of HIF-1α targeting site B of p300 CH1]
association between E6 and p300 [1]: reduced
cell proliferation, single-agent (UMSCC74A cells): had no effect
efficacy of cis-platinum on proliferation, combination (UMSCC74A cells): did not augment
cell proliferation, single-agent (UMSCC47 cells [2]): inhibited
cell proliferation, in combination with cis-platinum (UMSCC47 cells [2]): potentiated the anti-proliferative efficacy of cis-platinum
p53 accumulation and acetylated p53 levels [3]: enhanced
effect of cis-platinum on p53 accumulation and acetylation, combination [3, 14]: potentiated the effect of cis-platinum
p53 levels [4]: did not modulate
p53 activity [5]: did not modulate
apoptosis, enhancement (UMSCC47 cells [9]): 353%
expression of p300, p53, and p53-regulated genes [6]: unchanged
p21, miR-34a, and miR-200c expression [10]: modest but significant increase
clonogenic survival, reduction (inhibition) (UMSCC47 cells [11]): 35%
efficacy of cis-platinum on proliferation, combination [7]: did not augment
cell proliferation, single-agent [7]: had no effect
tumorsphere formation, reduction (UMSCC47 cells [12]): 20%
p53 activity, increase [8, 13]: 71%
effect of cis-platinum on p53 activity, combination [8, 14]: potentiated the effect of cis-platinum

XELA*RAADQ-NH2 (ELXRAADQ; not fully specified; hydrogen bond surrogate crosslink; C-terminal amide; CH1iB-MUT) [specificity control for CH1iB in which one leucine residue is mutated to alanine]
cell proliferation, single-agent (UMSCC47 cells [2]): no effect
cell proliferation, in combination with cis-platinum (UMSCC47 cells [2]): no effect
p53 activity, increase [8, 13]: 14%
